For test [1], the target named is EGFR Del19/T790M/C797S (H1975-clone #28) (Homo sapiens, UniProt P00533, T790M/C797S, form not given). Put plainly: EGFR degradation, HTRF total-EGFR assay, H1975-clone #28 (DTC). It counts as cell-based. The following applies: H1975-clone #28 Del19/T790M/C797S, 16 h treatment. The gist of the method:
(§1)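 H1975 clones with endogenous EGFR knocked out and homozygous exogenous EGFR mutants (#28 Del19/T790M/C797S; #25 L858R/T790M/C797S) treated 16 h at 37 °C, 8 doses, 5-fold from 10 μM, 0.2% DMSO. Total EGFR measured by HTRF on lysates, normalised to DMSO controls; DC50 and Dmax from curve fit.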

For test [2], the target named is T1, EGFR L858R/T790M/C797S (H1975-clone #25) (Homo sapiens, UniProt P00533, C797S/L858R/T790M).
T1 construct: expressed in transfected cells; host or cells: H1975 (clone #25), lentiviral transduction, endogenous EGFR knocked out
T1 sequence (P00533 25-1210 T790M/C797S/L858R): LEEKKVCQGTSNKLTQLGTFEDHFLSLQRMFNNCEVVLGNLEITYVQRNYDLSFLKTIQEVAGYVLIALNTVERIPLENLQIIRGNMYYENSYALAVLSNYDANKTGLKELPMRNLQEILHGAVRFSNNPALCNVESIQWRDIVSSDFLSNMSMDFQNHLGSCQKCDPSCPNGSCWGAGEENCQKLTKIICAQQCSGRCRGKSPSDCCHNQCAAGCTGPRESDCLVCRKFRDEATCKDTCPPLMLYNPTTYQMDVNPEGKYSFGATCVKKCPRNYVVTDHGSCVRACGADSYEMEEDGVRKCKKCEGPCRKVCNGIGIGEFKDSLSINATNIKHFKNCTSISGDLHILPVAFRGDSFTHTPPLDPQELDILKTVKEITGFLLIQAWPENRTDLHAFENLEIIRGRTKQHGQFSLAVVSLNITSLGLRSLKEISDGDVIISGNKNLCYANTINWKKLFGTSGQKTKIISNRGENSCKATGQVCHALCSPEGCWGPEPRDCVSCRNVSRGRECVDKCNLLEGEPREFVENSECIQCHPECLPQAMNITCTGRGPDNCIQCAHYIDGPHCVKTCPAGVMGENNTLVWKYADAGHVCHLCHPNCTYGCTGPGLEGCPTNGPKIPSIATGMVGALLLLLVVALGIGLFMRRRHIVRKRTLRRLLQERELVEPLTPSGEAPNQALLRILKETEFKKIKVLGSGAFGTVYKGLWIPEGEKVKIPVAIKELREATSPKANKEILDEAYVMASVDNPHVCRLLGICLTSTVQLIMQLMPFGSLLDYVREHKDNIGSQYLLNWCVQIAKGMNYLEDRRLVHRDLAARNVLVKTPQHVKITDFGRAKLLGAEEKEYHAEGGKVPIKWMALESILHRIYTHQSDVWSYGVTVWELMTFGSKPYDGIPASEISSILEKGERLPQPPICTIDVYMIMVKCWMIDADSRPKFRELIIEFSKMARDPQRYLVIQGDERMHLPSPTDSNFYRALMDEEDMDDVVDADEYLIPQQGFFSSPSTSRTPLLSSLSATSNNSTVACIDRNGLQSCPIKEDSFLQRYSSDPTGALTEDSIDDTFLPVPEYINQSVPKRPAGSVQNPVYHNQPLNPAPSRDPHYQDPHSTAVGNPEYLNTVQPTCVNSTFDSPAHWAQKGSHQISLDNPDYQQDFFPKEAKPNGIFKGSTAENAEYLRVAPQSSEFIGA
Description: EGFR degradation, HTRF total-EGFR assay, H1975-clone #25 (LTC). In kind it is cell-based. The following applies: H1975-clone #25 L858R/T790M/C797S, 16 h treatment. The gist of the method:
as §1

We go through 13 molecules from patent US20250332266A1, “COMPOUNDS FOR THE DEGRADATION OF EGFR KINASE” (BeiGene Switzerland GmbH, priority 2022, published 2025).

Molecules are shown by their SMILES.

EGFR Del19/T790M/C797S (H1975-clone #28), sequence (P00533 with tags, fused parts or gaps DEL746-750/T790M/C797S, form open): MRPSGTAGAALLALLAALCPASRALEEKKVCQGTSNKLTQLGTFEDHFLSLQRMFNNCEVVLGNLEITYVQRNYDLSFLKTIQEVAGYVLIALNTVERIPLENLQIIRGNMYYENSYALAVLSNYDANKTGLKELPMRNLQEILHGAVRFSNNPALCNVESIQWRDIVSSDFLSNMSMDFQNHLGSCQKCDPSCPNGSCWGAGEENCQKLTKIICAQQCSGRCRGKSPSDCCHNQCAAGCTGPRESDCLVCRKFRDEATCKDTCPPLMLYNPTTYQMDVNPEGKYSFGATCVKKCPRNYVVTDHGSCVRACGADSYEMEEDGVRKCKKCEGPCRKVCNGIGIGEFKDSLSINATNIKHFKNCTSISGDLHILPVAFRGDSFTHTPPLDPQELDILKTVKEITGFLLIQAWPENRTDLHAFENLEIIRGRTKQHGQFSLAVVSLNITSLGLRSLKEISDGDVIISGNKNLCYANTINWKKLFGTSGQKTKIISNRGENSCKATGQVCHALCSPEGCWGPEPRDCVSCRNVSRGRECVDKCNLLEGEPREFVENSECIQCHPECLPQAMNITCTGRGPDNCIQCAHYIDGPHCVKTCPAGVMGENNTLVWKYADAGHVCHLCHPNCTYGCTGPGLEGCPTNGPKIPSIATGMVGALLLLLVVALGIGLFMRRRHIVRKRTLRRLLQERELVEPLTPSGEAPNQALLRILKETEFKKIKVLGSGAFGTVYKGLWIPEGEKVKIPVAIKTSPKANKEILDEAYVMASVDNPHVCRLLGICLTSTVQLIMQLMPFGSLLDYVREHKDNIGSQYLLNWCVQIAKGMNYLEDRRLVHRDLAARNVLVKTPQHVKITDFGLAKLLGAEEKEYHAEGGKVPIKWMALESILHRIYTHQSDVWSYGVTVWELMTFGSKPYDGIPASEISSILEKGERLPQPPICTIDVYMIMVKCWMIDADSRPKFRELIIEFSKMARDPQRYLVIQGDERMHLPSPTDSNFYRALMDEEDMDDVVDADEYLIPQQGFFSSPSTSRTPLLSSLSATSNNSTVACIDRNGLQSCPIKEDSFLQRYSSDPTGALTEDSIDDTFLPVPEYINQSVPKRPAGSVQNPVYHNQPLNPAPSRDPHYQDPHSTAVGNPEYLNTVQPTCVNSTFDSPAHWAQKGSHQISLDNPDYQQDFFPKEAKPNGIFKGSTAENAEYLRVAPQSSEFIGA

Take `Cc1cc2cc(n1)-c1cnn(C)c1OC[C@H]1C[C@@H](CN3/C(=N/C2=O)Nc2ccc(N4CCN(C5CN(c6cc(F)c([C@H]7CCC(=O)NC7=O)c(F)c6)C5)CC4)cc23)C1` [Example 29, (R)-3-(4-(3-(4-((7^1s,7^3s,E)-1^1,2^6-dimethyl-3-oxo-5^2,5^3-dihydro-1^1H,5^1H-9-oxa-4-aza-5(2,1)-benzo[d]imidazola-2(2,4)-pyridina-1(4,5)-pyrazola-7(1,3)-cyclobutanacyclononaphane-5^6-yl)piperazin-1-yl)azetidin-1-yl)-2,6-difluorophenyl)piperidine-2,6-dione]: the “Degradation H1975 # 28 DTC” value in test [1] is recorded as 78.3. In addition, the “Degradation H1975 # 25-LTC” value in test [2] is reported as 42.6.

As for `Cc1cc2cc(n1)-c1cnn(C)c1OC[C@H]1C[C@@H](CN3/C(=N/C2=O)Nc2ccc(N4CCN(C5CCN(c6cc(F)c([C@H]7CCC(=O)NC7=O)c(F)c6)CC5)[C@H](CO)C4)cc23)C1` [Example 30, (R)-3-(4-(4-((S)-4-((7^1s,7^3R,E)-1^1,2^6-dimethyl-3-oxo-5^2,5^3-dihydro-1^1H,5^1H-9-oxa-4-aza-5(2,1)-benzo[d]imidazola-2(2,4)-pyridina-1(4,5)-pyrazola-7(1,3)-cyclobutanacyclononaphane-5^6-yl)-2-(hydroxymethyl)piperazin-1-yl)piperidin-1-yl)-2,6-difluorophenyl)piperidine-2,6-dione], the “Degradation H1975 # 28 DTC” value in test [1] is 84.4. Also, the “Degradation H1975 # 25-LTC” value in test [2] was found to be 90.3.

Turning to `Cc1cc2cc(n1)-c1cnn(C)c1OC[C@H]1C[C@@H](CN3/C(=N/C2=O)Nc2ccc(N4CCN(C5CCN(c6cc(F)c([C@H]7CCC(=O)NC7=O)c(F)c6)CC5)[C@@H](CO)C4)cc23)C1` [Example 31, (R)-3-(4-(4-((R)-4-((7^1s,7^3S,E)-1^1,2^6-dimethyl-3-oxo-5^2,5^3-dihydro-1^1H,5^1H-9-oxa-4-aza-5(2,1)-benzo[d]imidazola-2(2,4)-pyridina-1(4,5)-pyrazola-7(1,3)-cyclobutanacyclononaphane-5^6-yl)-2-(hydroxymethyl)piperazin-1-yl)piperidin-1-yl)-2,6-difluorophenyl)piperidine-2,6-dione], the “Degradation H1975 # 28 DTC” value in test [1] is 84.2. The “Degradation H1975 # 25-LTC” value in test [2] amounted to 90.5.

In the case of `Cc1cc2cc(n1)-c1cnn(C)c1OC[C@H]1C[C@@H](CN3/C(=N/C2=O)Nc2ccc(N4CCN(C5CCN(c6cnc([C@H]7CCC(=O)NC7=O)cc6C)CC5)C[C@@H]4C)cc23)C1` [Example 32, 3-(5-(4-((S)-4-((7^1s,7^3R,E)-1^1,2^6-dimethyl-3-oxo-5^1,5^3-dihydro-1^1H,5^1H-9-oxa-4-aza-5(2,1)-benzo[d]imidazola-2(2,4)-pyridina-1(4,5)-pyrazola-7(1,3)-cyclobutanacyclononaphane-5^6-yl)-3-methylpiperazin-1-yl)piperidin-1-yl)-4-methylpyridin-2-yl)piperidine-2,6-dione], the “Degradation H1975 # 28 DTC” value in test [1] is recorded as 88.8. Further, the “Degradation H1975 # 25-LTC” value in test [2] is listed as 88.8.

Turning to `Cc1cc2cc(n1)-c1cnn(C)c1OC[C@H]1C[C@@H](CN3/C(=N/C2=O)Nc2ccc(N4CCN(C5CCN(c6ccc(C7CCC(=O)NC7=O)nc6C)CC5)C[C@@H]4C)cc23)C1` (stereo partly drawn) [Example 33, 3-(5-(4-((S)-4-((7^1s,7^3R,E)-1^1,2^6-dimethyl-3-oxo-5^2,5^3-dihydro-1^1H,5^1H-9-oxa-4-aza-5(2,1)-benzo[d]imidazola-2(2,4)-pyridina-1(4,5)-pyrazola-7(1,3)-cyclobutanacyclononaphane-5^6-yl)-3-methylpiperazin-1-yl)piperidin-1-yl)-6-methylpyridin-2-yl)piperidine-2,6-dione], the “Degradation H1975 # 28 DTC” value in test [1] is recorded as 89.4. Also, the “Degradation H1975 # 25-LTC” value in test [2] is reported as 93.3.

For the molecule `Cc1cc2cc(n1)-c1cnn(C)c1OC[C@H]1C[C@@H](CN3/C(=N/C2=O)Nc2ccc(N4CCN(C5CCN(c6ccc(C7CCC(=O)NC7=O)nc6C)CC5)C[C@H]4C)cc23)C1` (stereo partly drawn) [Example 34, 3-(5-(4-((R)-4-((7^1s,7^3S,E)-1^1,2^6-dimethyl-3-oxo-5^2,5^3-dihydro-1^1H,5^1H-9-oxa-4-aza-5(2,1)-benzo[d]imidazola-2(2,4)-pyridina-1(4,5)-pyrazola-7(1,3)-cyclobutanacyclononaphane-5^6-yl)-3-methylpiperazin-1-yl)piperidin-1-yl)-6-methylpyridin-2-yl)piperidine-2,6-dione], in test [1], the “Degradation H1975 # 28 DTC” value is 89.6. In test [2], the “Degradation H1975 # 25-LTC” value amounted to 93.3.

On to `Cc1cc2cc(n1)-c1cnn(C)c1OC[C@H]1C[C@@H](CN3/C(=N/C2=O)Nc2ccc(N4CCN(C5CCN(c6ccc(C7CCC(=O)NC7=O)nc6)CC5)C(=O)C4)cc23)C1` (some centres unmarked) [Example 35, 3-(5-(4-(4-((7^1s,7^3s,E)-1^1,2^6-dimethyl-3-oxo-5^2,5^3-dihydro-1^1H,5^1H-9-oxa-4-aza-5(2,1)-benzo[d]imidazola-2(2,4)-pyridina-1(4,5)-pyrazola-7(1,3)-cyclobutanacyclononaphane-5^6-yl)-2-oxopiperazin-1-yl)piperidin-1-yl)pyridin-2-yl)piperidine-2,6-dione], for which the “Degradation H1975 # 28 DTC” value in test [1] is 72.9. The “Degradation H1975 # 25-LTC” value in test [2] was 85.9.

Take `Cc1cc2cc(n1)-c1cnn(C)c1OC[C@H]1C[C@@H](CN3/C(=N/C2=O)Nc2ccc(N4CCN(C5CCN(c6ccc(C7CCC(=O)NC7=O)nc6)CC5)C[C@@H]4C)cc23)C1` (stereo partly drawn) [Example 36, 3-(5-(4-((S)-4-((7^1s,7^3R,E)-1^1,2^6-dimethyl-3-oxo-5^2,5^3-dihydro-1^1H,5^1H-9-oxa-4-aza-5(2,1)-benzo[d]imidazola-2(2,4)-pyridina-1(4,5)-pyrazola-7(1,3)-cyclobutanacyclononaphane-5^6-yl)-3-methylpiperazin-1-yl)piperidin-1-yl)pyridin-2-yl)piperidine-2,6-dione]: the “Degradation H1975 # 28 DTC” value in test [1] was 78.0. The “Degradation H1975 # 25-LTC” value in test [2] turned out to be 87.7.

With `Cc1cc2cc(n1)-c1cnn(C)c1OC[C@H]1C[C@@H](CN3/C(=N/C2=O)Nc2ccc(N4CCN(CC5CN(c6cnc(C7CCC(=O)NC7=O)cc6C)C5)C[C@@H]4C)cc23)C1` (stereo partly drawn) [Example 37, 3-(5-(3-(((S)-4-((7^1s,7^3R,E)-1^1,2^6-dimethyl-3-oxo-5^2,5^3-dihydro-1^1H,5^1H-9-oxa-4-aza-5(2,1)-benzo[d]imidazola-2(2,4)-pyridina-1(4,5)-pyrazola-7(1,3)-cyclobutanacyclononaphane-5^6-yl)-3-methylpiperazin-1-yl)methyl)azetidin-1-yl)-4-methylpyridin-2-yl)piperidine-2,6-dione], the “Degradation H1975 # 28 DTC” value in test [1] is on record as 79.4. In addition, in test [2], the “Degradation H1975 # 25-LTC” value was 80.7.

With `Cc1cc2cc(n1)-c1cnn(C)c1OC[C@H]1C[C@@H](CN3/C(=N/C2=O)Nc2ccc(N4CCN(C5CCN(c6cnc(C7CCC(=O)NC7=O)cc6C)CC5)CC4)cc23)C1` (some centres unmarked) [Example 40, 3-(5-(4-(4-((7^1s,7^3s,E)-1^1,2^6-dimethyl-3-oxo-5^2,5^3-dihydro-1^1H,5^1H-9-oxa-4-aza-5(2,1)-benzo[d]imidazola-2(2,4)-pyridina-1(4,5)-pyrazola-7(1,3)-cyclobutanacyclononaphane-5^6-yl)piperazin-1-yl)piperidin-1-yl)-4-methylpyridin-2-yl)piperidine-2,6-dione], the “Degradation H1975 # 28 DTC” value in test [1] was found to be 91.5. For the same molecule, in test [2], the “Degradation H1975 # 25-LTC” value stood at 93.6.

For `Cc1cc2cc(n1)-c1cnn(C)c1OC[C@H]1C[C@@H](CN3/C(=N/C2=O)Nc2ccc(N(C)C4CN(C5CCN(c6cnc(C7CCC(=O)NC7=O)cc6C)CC5)C4)cc23)C1` (some centres unmarked) [Example 41, 3-(5-(4-(3-(((7^1s,7^3s,E)-1^1,2^6-dimethyl-3-oxo-5^2,5^3-dihydro-1^1H,5^1H-9-oxa-4-aza-5(2,1)-benzo[d]imidazola-2(2,4)-pyridina-1(4,5)-pyrazola-7(1,3)-cyclobutanacyclononaphane-5^6-yl)(methyl)amino)azetidin-1-yl)piperidin-1-yl)-4-methylpyridin-2-yl)piperidine-2,6-dione], the “Degradation H1975 # 28 DTC” value in test [1] stood at 80.1. Moreover, the “Degradation H1975 # 25-LTC” value in test [2] was determined as 84.2.

On to `Cc1cc2cc(n1)-c1cnn(C)c1OC[C@H]1C[C@@H](CN3/C(=N/C2=O)Nc2ccc(N4C[C@H]5C[C@@H]4CN5C4CCN(c5ccc(C6CCC(=O)NC6=O)nc5C)CC4)cc23)C1` (stereo partly drawn) [Example 43, 3-(5-(4-((1R,4R)-5-((7^1s,7^3S,E)-1^1,2^6-dimethyl-3-oxo-5^2,5^3-dihydro-1^1H,5^1H-9-oxa-4-aza-5(2,1)-benzo[d]imidazola-2(2,4)-pyridina-1(4,5)-pyrazola-7(1,3)-cyclobutanacyclononaphane-5^6-yl)-2,5-diazabicyclo[2.2.1]heptan-2-yl)piperidin-1-yl)-6-methylpyridin-2-yl)piperidine-2,6-dione], for which the “Degradation H1975 # 28 DTC” value in test [1] was 75.5. Also, the “Degradation H1975 # 25-LTC” value in test [2] was 87.1.

On to `Cc1cc2cc(n1)-c1cnn(C)c1OC[C@H]1C[C@@H](CN3/C(=N/C2=O)Nc2ccc(N4CCC(N5CCN(c6ccc(C7CCC(=O)NC7=O)nc6C)C[C@@H]5C)CC4)cc23)C1` (stereo partly drawn) [Example 44, 3-(5-((S)-4-(1-((7^1s,7^3R,E)-1^1,2^6-dimethyl-3-oxo-5^2,5^3-dihydro-1^1H,5^1H-9-oxa-4-aza-5(2,1)-benzo[d]imidazola-2(2,4)-pyridina-1(4,5)-pyrazola-7(1,3)-cyclobutanacyclononaphane-5^6-yl)piperidin-4-yl)-3-methylpiperazin-1-yl)-6-methylpyridin-2-yl)piperidine-2,6-dione], for which the “Degradation H1975 # 28 DTC” value in test [1] was determined as 80.7. The “Degradation H1975 # 25-LTC” value in test [2] was 91.3.
